Measured values reported in patent US10682328B2, “Compositions and methods for treatment of retinal degenerative diseases” (MOR RESEARCH APPLICATIONS LTD., priority 2014, dated 2020).

Key:
Assay type in all cases: cell-based, human
[1] = tested on: RPE cells; experiment: SA-β-gal staining (senescence marker)
[2] = tested on: RPE cells; experiment: Conditioned media (SASP) applied on fresh RPE cells, morphology
Experimental: FIG. 5 presents photographs showing that TAK1 inhibition contributes to the SASP of the RPE cells, causing hypertrophy and dysfunction. RPE cells were grown with the TAK1 inhibitor and/or H2O2 ([…]) or without treatment. After 2 weeks, conditioned media from the differently treated cells were centrifuge and the supernatants was employed on new freshly cells. Representative photographs of fresh RPE cells treated for 72 hours with the indicated conditioned media are shown. Scale bar=50 μm.
The most significant effect of senescence, is the acquisition of a senescence-associated secretory phenotype (SASP). SASP can convert senescent cells to proinflammatory cells that promote the secretion of chemokines and cytokines that can affect the microenvironment, including in the human retina (16, 17). To examine the role of TAK1 in this process, RPE cells were treated with TAK1 inhibitor or with H2O2, alone or in combination. After 2 weeks, the media was collected from the three separate treatments, centrifuged and the supernatants (conditioned media) were applied on fresh RPE cells for 72 hours.

[3] = tested on: RPE cells (ARPE-19); experiment: FACS cell-cycle phase analysis by DNA content (FL2A)
Experimental: (§1) Double-staining (annexin and propidium iodide (PI)) assay of RPE cells. RPE cells (ARPE-19, available from ATCC) were treated for one hour with the TAK1 inhibitor {5Z-7-oxozeaenol (1 μM)}, following 200 μM H2O2 for one hour or left untreated. The cells were then washed with fresh medium and after 24 hours were trypsinized, stained, and analyzed by FACS. The percentage of cells in each cell-cycle phase (G1/G0, S, and G2/M) was determined by its DNA content (FL2A).
To examine the effect of TAK1 inhibition on the RPE cell cycle, RPE cells were treated with TAK1 inhibitor, with or without H2O2. The RPE cells are quiescent and mostly located at the G0/G1 stage (FIGS. 1B and 1C), however, following TAK1 inhibition the percentage of cells at the G0/G1 stage increased to 89% of the total number. […] This phenomenon was reduced upon TAK1 inhibition prior to the oxidative stress (FIGS. 1B and C). The Cell cycle arrest at G0/G1 upon TAK1-inhibition was further supported by the reduction in proliferation of RPE cells observed in the presence of the TAK1 inhibitor (FIG. 1D).

[4] = tested on: RPE cells (ARPE-19); experiment: Annexin and propidium iodide double-staining FACS assay of RPE cells (apoptosis)
Experimental: as §1
The role of TAK1 in the inflammatory response is characterized (12, 13), but little is known about its participation in the response of RPE cells to stress. RPE cells were treated with the TAK1 inhibitor 5Z-7-oxozeaenol (1 μM) for 1 hour before further treatment with H2O2 (200 μM). […] In contrast, in cells treated with the TAK1 inhibitor prior to their treatment with H2O2 the number apoptotic cells was 24% (FIG. 1A). The number of cells in the late apoptosis section of each FACS chart (annexin and Pi, upper right panel) was similar with or without TAK1 inhibitor.

[5] = tested on: RPE cells; experiment: Anisomycin toxicity to RPE cells (cellular morphology 72 hours post-treatment); settings: low levels, 5 minute treatment
Experimental: To determine possible toxicity of anisomycin to RPE cells, RPE cells were treated with anisomycin at different concentration for 5 minute periods. Following treatment, the medium was replaced and fresh medium was added. 72 hours post-treatment, the cells were photographed. […] Their viability was then assayed by the XTT assay.

[6] = tested on: ARPE-19 cells; experiment: XTT cell viability / proliferation assay
Experimental: Cell viability assays ARPE-19 cells were seeded in 96-well plates (5000 cells/well) in full medium and were pretreated with the TAK1 inhibitor 5Z-7-oxozeaenol (1 μM) or left untreated for 1 hour. Their viability was then assayed by the XTT assay (cell proliferation kit cat #20-300-1000; Beit Haemek, Israel).

[7] = tested on: p53, phospho-p38; experiment: Western blot of p53 and phospho-p38 in RPE cells under oxidative stress
Experimental: Western blot analysis was performed by standard protocols (11), p53, p38, phospho-p38, GADPH, and TAK1; antibodies were obtained from Enco, Israel.
The p53 protein is known to play a critical role in cell-cycle regulation, DNA repair, and programmed cell death (14, 15). In view of this knowledge, and given the above-described observation that TAK1 inhibition reduced apoptosis, the expression of p53 in RPE cells was examined.

[8] = tested on: RPE cells; experiment: RPE cell size quantification (hypertrophy); settings: oxidative stress with TAK-1 inhibition; N=40 cells
Experimental: N=40 cells for each treatment. One of the hallmarks of RPE senescence is cellular hypertrophy. RPE cell size is approximately […]; but upon oxidative stress or genetic mutation RPE cells can undergo enlargement.

[9] = medium from cells treated 2 weeks with the single agent

CC1=C(/C=C/C(C)=C/C=C/C(C)=C/c2cc(/C=C/C=C(C)/C=C/C3=C(C)CCCC3(C)C)cc[n+]2CCO)C(C)(C)CCC1 [A2E]
senescent phenotype ([1]; A2E 5 μM added to cultured RPE cells): increases the senescent phenotype

OO [H2O2]
phenotype of fresh RPE cells after 72 hours with conditioned medium [2, 9]: hypertrophic phenotype similar to that of senescent cells
G2/M arrest ([3]; H2O2 treatment alone): high levels of G2/M arrest
number of apoptotic cells as a percentage of the total number ([4]; H2O2 alone (200 μM), untreated cells 1.25%): 31%

COc1ccc(C[C@H]2NC[C@H](O)[C@H]2OC(C)=O)cc1 [anisomycin, (2R,3S,4S)-4-hydroxy-2-(4-methoxybenzyl)-pyrrolidin-3-yl acetate]
toxicity to RPE cells [5]: not toxic
number of SA-β-Gal positive cells ([1]; H2O2 1 hour, 10 days growth, anisomycin 10 ng/ml 5 min, five more days, versus untreated cells exposed to oxidative stress): reduces the number of SA-β-Gal positive cells
rate of cell proliferation ([6]; oxidative stress and anisomycin): did not display reduction

COc1cc(O)c2c(c1)/C=C/C[C@H](O)[C@H](O)C(=O)/C=C\C[C@H](C)OC2=O [5Z-7-oxozeaenol]
phenotype of fresh RPE cells after 72 hours with conditioned medium [2, 9]: hypertrophic phenotype similar to that of senescent cells
phenotype of fresh RPE cells after 72 hours with conditioned medium ([2]; medium from cells treated with both TAK1 inhibitor and H2O2): aberrant morphology similar to that of atrophic RPE cells
p53 expression levels over a longer period ([7]; TAK1 inhibition, days): reduced p53 expression levels slightly more than the untreated cells
p38 phosphorylation ([7]; TAK1 inhibitor 1 μM pretreatment, oxidative stress): inhibition of p38 phosphorylation
time of p53 expression peak ([7]; pretreated with TAK1 inhibitor 1 μM, oxidative stress, control peak after 60 min): 10 min
number of cells expressing SA-β-gal ([1]; TAK1 inhibitor alone, relative to untreated cells): dramatically increased
SA-β-gal expression ([1]; TAK1 inhibitor pretreatment then oxidative stress (200 μM H2O2 1 hour), days 13 and 16): strongly increased
G2/M arrest under oxidative stress ([3]; TAK1 inhibition prior to H2O2 treatment): reduced
percentage of cells at the G0/G1 stage ([3]; TAK1 inhibitor 1 μM, without H2O2): 89%
proliferation rate (optical density) ([6]; 5Z-7-oxozeaenol 1 μM pretreatment 1 hour, versus untreated cells peaking on day 4): slower proliferation rate
cell size [8]: increases cell size
number of apoptotic cells as a percentage of the total number ([4]; TAK1 inhibitor 1 μM 1 hour prior to H2O2 200 μM, FACS after 24 hours): 24%
